Assay results as given in patent US12594267B2, “Capsid inhibitors for the treatment of HIV” (Gilead Sciences, Inc., priority 2018, dated 2026).
Where two headings read alike, the source gives them in different places.

Experiment: PK after subcutaneous administration of solutions in rats
Format: in vivo, Wistar Han rat
Conditions: Wistar Han, plasma, rat, SC 50 mg/kg; for AUC(0-t) / concentration at 28 d / concentration at 84 d / Cmax / concentration at 98 d / concentration at 168 d / concentration at 1 h / concentration at 3 h / concentration at 8 h / concentration at 24 h / concentration at 48 h / concentration at 72 h / concentration at 96 h / concentration at 168 h / concentration at 336 h / concentration at 504 h / concentration at 672 h / concentration at 840 h / concentration at 1008 h / concentration at 1344 h / concentration at 1680 h: sc, 50 mg/kg; for concentration at 28 d: read-out: C28d; for concentration at 84 d: read-out: C84d; for concentration at 98 d: read-out: C98d; for concentration at 1 h / concentration at 3 h / concentration at 8 h / concentration at 24 h / concentration at 48 h / concentration at 72 h / concentration at 96 h / concentration at 168 h / concentration at 336 h / concentration at 504 h / concentration at 672 h / concentration at 840 h / concentration at 1008 h / concentration at 1344 h / concentration at 1680 h: male, 300 mg/mL in 15% water/85% PEG 300
Method: Formulations containing the compound of Formula (Ia) were prepared as aqueous solutions or oral formulations and administered subcutaneously to rats, dogs, cynomolgus monkey, and/or rhesus monkey.
A solution of the compound of Formula (Ia) in 10% ethanol, 13% water, and 77% PEG 200 (400 mg/mL) was prepared. The solution was administered subcutaneously to dogs at a dose of 12 mg/kg and rats at a dose of 50 mg/kg and the pharmacokinetic (PK) profile was determined. […] In both species, plasma concentrations of the compound of Formula (Ia) were maintained above the target trough concentration of 20 nM (corresponding to an IQ of 5) for at least 84 days (12 weeks).
A solution of the free acid of the compound of Formula (Ia) in 15% water and 85% PEG 300 (300 mg/mL) was prepared. The solution was administered subcutaneously to male Wistar Han rats at a dose level of 50 mg/kg and dose volume of 0.167 mL/kg and the pharmacokinetic (PK) profile was determined.
A 300 mg/ml solution of a compound of Formula (Ia) having 9.8 w/w % water, 65.0 w/w % PEG 300, and 25.2 w/w % of the compound of Formula (Ia) was prepared. The solution was administered subcutaneously to rats at a dose of 50 mg/kg and to dogs at a dose of 12 mg/kg and the pharmacokinetic (PK) profile was determined. […] In the rat, plasma concentrations of the compound of Formula (Ia) were maintained above the target trough concentration of 20 nM for at least 168 days (24 weeks). In the dog, plasma concentrations of the compound of Formula (Ia) were maintained above the target trough concentration of 20 nM for at least 84 days (12 weeks).
(§1) A 150 mg/ml solution of a compound of Formula (Ia) having 27.92 w/w % water, 58.04 w/w % PEG 300, 13.47 w/w % of a compound of Formula (Ia), and 1.1 w/w % NaOH was prepared. The solution was administered subcutaneously to rats at a dose of 50 mg/kg and to dogs at a dose of 12 mg/kg and the pharmacokinetic (PK) profile was determined. […] In the rat, plasma concentrations of the compound of Formula (Ia) were maintained above the target trough concentration of 20 nM for at least 126 days (18 weeks). In the dog, plasma concentrations of the compound of Formula (Ia) were maintained above the target trough concentration of 20 nM for at least 56 days (8 weeks).
as §1, with “300” for “150”, “23.2” for “27.92”, “50.0” for “58.04”, “25.7” for “13.47”
A 50 mg/ml solution of a compound of Formula (Ia) having 30.07 w/w % water, 64.40 w/w % PEG 300, 4.68 w/w % of a sodium salt of the compound of Formula (Ia), and 0.85 w/w % poloxamer 188 was prepared. The solution was administered subcutaneously to rats at a dose of 50 mg/kg and to dogs at a dose of 6 mg/kg and the pharmacokinetic (PK) profile was determined. […] In the rat, plasma concentrations of the compound of Formula (Ia) were maintained above the target trough concentration of 20 nM for at least 28 days (4 weeks). In the dog, plasma concentrations of the compound of Formula (Ia) were maintained above the target trough concentration of 20 nM for at least 14 days (2 weeks).
A 75 mg/ml solution of a compound of Formula (Ia) having 29.21 w/w % water, 62.55 w/w % PEG 300, 6.97 w/w % of a sodium salt of the compound of Formula (Ia), and 1.68 w/w % poloxamer 188 was prepared. The solution was administered subcutaneously to rats at a dose of 50 mg/kg and to dogs at a dose of 6 mg/kg and the pharmacokinetic (PK) profile was determined. […]

[1] = 150 mg/mL solution (w/w %: 27.92 water, 58.04 PEG 300, 13.47 Formula (Ia), 1.1 NaOH), mean ± SD, n=3
[2] = 300 mg/mL solution (w/w %: 21.97 water, 47.05 PEG 300, 25.21 Formula (Ia), 1.08 NaOH, 4.69 poloxamer 188), mean ± SD, n=3
[3] = 400 mg/mL solution in 10% ethanol, 13% water, 77% PEG 200, mean ± SD, n=3

SMILES: CC(C)(C#Cc1ccc(-c2ccc(Cl)c3c(NS(C)(=O)=O)nn(CC(F)(F)F)c23)c([C@H](Cc2cc(F)cc(F)c2)NC(=O)Cn2nc(C(F)(F)F)c3c2C(F)(F)[C@@H]2C[C@H]32)n1)S(C)(=O)=O [Formula (Ia), N—((S)-1-(3-(4-chloro-3-(methylsulfonamido)-1-(2,2,2-trifluoroethyl)-1H-indazol-7-yl)-6-(3-methyl-3-(methylsulfonyl)but-1-yn-1-yl)pyridin-2-yl)-2-(3,5-difluorophenyl)ethyl)-2-((3bS,4aR)-5,5-difluoro-3-(trifluoromethyl)-3b,4,4a,5-tetrahydro-1H-cyclopropa[3,4]cyclopenta[1,2-c]pyrazol-1-yl)acetamide]
- Tmax [1]: 18.7 ± 4.04 days
- AUC(0-t) (50 mg/mL solution (w/w %: 30.07 water, 64.40 PEG 300, 4.68 sodium salt of Formula (Ia), 0.85 poloxamer 188), mean ± SD, n=3, read-out: AUC0-7d): 156 ± 48 µM·h
- concentration at 28 d (50 mg/mL solution (w/w %: 30.07 water, 64.40 PEG 300, 4.68 sodium salt of Formula (Ia), 0.85 poloxamer 188), mean ± SD, n=3): 0.082 ± 0.035 µM
- concentration at 28 d (75 mg/mL solution (w/w %: 29.21 water, 62.55 PEG 300, 6.97 sodium salt of Formula (Ia), 1.68 poloxamer 188), mean ± SD, n=3): 0.0325 ± 0.0185 µM
- AUC(0-t) (100 mg/mL solution (w/w %: 28.36 water, 60.73 PEG 300, 9.23 sodium salt of Formula (Ia), 1.68 poloxamer 188), mean ± SD, n=3, read-out: AUC0-7d): 202 ± 27 µM·h
- concentration at 28 d (100 mg/mL solution (w/w %: 28.36 water, 60.73 PEG 300, 9.23 sodium salt of Formula (Ia), 1.68 poloxamer 188), mean ± SD, n=3): 0.415 ± 0.098 µM
- concentration at 28 d (125 mg/mL solution (w/w %: 27.51 water, 58.92 PEG 300, 11.48 sodium salt of Formula (Ia), 2.09 poloxamer 188), mean ± SD, n=3): 0.0279 ± 0.0262 µM
- concentration at 84 d (150 mg/mL solution (w/w %: 26.6 water, 56.97 PEG 300, 13.39 Formula (Ia), 0.57 NaOH, 2.49 poloxamer 188), mean ± SD, n=3): 0.0533 ± 0.0457 µM
- Cmax [1]: 0.809 ± 0.021 µM
- concentration at 98 d [1]: 0.037 ± 0.0107 µM
- Cmax (300 mg/mL solution (w/w %: 9.8 water, 65.0 PEG 300, 25.2 Formula (Ia)), mean ± SD, n=3): 0.318 ± 0.146 µM
- concentration at 168 d (300 mg/mL solution (w/w %: 9.8 water, 65.0 PEG 300, 25.2 Formula (Ia)), mean ± SD, n=3, read-out: Cd168): 0.0784 ± 0.0138 µM
- Cmax [2]: 0.915 ± 0.248 µM
- concentration at 98 d [2]: 0.0513 ± 0.0365 µM
- Cmax (300 mg/mL solution (w/w %: 23.2 water, 50.0 PEG 300, 25.7 Formula (Ia), 1.1 NaOH), mean ± SD, n=3): 0.355 ± 0.036 µM
- concentration at 168 d (300 mg/mL solution (w/w %: 23.2 water, 50.0 PEG 300, 25.7 Formula (Ia), 1.1 NaOH), mean ± SD, n=3, read-out: C168d): 0.0128 ± 0.0035 µM
- AUC(0-t) (400 mg/mL solution in 10% ethanol, 13% water, 77% PEG 200, mean ± SD, n=3, read-out: AUC0-140d): 569 ± 157 µM·h
- concentration at 84 d [3]: 0.162 ± 0.03 µM
- Cmax [3]: 0.283 ± 0.119 µM
- concentration at 1 h (rat #1): 0.0089 µM
- concentration at 3 h (rat #1): 0.027 µM
- concentration at 8 h (rat #1): 0.037 µM
- concentration at 24 h (rat #1): 0.0526 µM
- concentration at 48 h (rat #1): 0.0698 µM
- concentration at 72 h (rat #1): 0.0656 µM
- concentration at 96 h (rat #1): 0.0655 µM
- concentration at 168 h (rat #1): 0.143 µM
- concentration at 336 h (rat #1): 0.258 µM
- concentration at 504 h (rat #1): 0.327 µM
- concentration at 672 h (rat #1): 0.333 µM
- concentration at 840 h (rat #1): 0.322 µM
- concentration at 1008 h (rat #1): 0.3 µM
- concentration at 1344 h (rat #1): 0.251 µM
- concentration at 1680 h (rat #1): 0.202 µM
- concentration at 1 h (rat #2): 0.0114 µM
- concentration at 3 h (rat #2): 0.0173 µM
- concentration at 8 h (rat #2): 0.0328 µM
- concentration at 24 h (rat #2): 0.0492 µM
- concentration at 48 h (rat #2): 0.0711 µM
- concentration at 72 h (rat #2): 0.0669 µM
- concentration at 96 h (rat #2): 0.0768 µM
- concentration at 168 h (rat #2): 0.132 µM
- concentration at 336 h (rat #2): 0.273 µM
- concentration at 504 h (rat #2): 0.267 µM
- concentration at 672 h (rat #2): 0.299 µM
- concentration at 840 h (rat #2): 0.316 µM
- concentration at 1008 h (rat #2): 0.258 µM
- concentration at 1344 h (rat #2): 0.229 µM
- concentration at 1680 h (rat #2): 0.166 µM
- concentration at 1 h (rat #3): 0.0056 µM
- concentration at 3 h (rat #3): 0.0201 µM
- concentration at 8 h (rat #3): 0.0268 µM
- concentration at 24 h (rat #3): 0.0428 µM
- concentration at 48 h (rat #3): 0.0708 µM
- concentration at 72 h (rat #3): 0.0701 µM
